Test results taken from patent publication US8952024B2, “Herbicidal pyrimidone derivatives” (E I du Pont de Nemours and Company, priority 2009, dated 2015).

Tests used:
Test in all cases: Test B pre-/postemergence plant response
Assay type in all cases: in vivo
[1] = tested on: pigweed (Amaranthus retroflexus)
Summary of the method: (§1)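 Visually scored on a 0 to 100 scale after 13 to 15 days in greenhouse versus controls. Treatments were preemergence on seeded loam/sand soil and postemergence on 1- to 4-leaf plants.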

[2] = tested on: large crabgrass (Digitaria sanguinalis)
Summary of the method: as §1

[3] = tested on: wheat (Triticum aestivum)
Summary of the method: as §1

[4] = tested on: velvetleaf (Abutilon theophrasti)
Summary of the method: as §1

[5] = tested on: lambsquarters (Chenopodium album)
Summary of the method: as §1

[6] = tested on: yellow nutsedge (Cyperus esculentus)
Summary of the method: as §1

[7] = tested on: ragweed (common ragweed, Ambrosia elatior)
Summary of the method: as §1

[8] = tested on: Italian ryegrass (Lolium multiflorum)
Summary of the method: as §1

[9] = tested on: goosegrass (Eleusine indica)
Summary of the method: as §1

[10] = tested on: woolly cupgrass (Eriochloa villosa)
Summary of the method: as §1

[11] = tested on: Surinam grass (Brachiaria decumbens)
Summary of the method: as §1

[12] = tested on: green foxtail (Setaria viridis)
Summary of the method: as §1

[13] = tested on: downy bromegrass (Bromus tectorum)
Summary of the method: as §1

[14] = Postemergence, 31 g ai/ha, 0 to 100 scale (0 no effect, 100 complete control)
[15] = Postemergence, 62 g ai/ha, scale 0 to 100 (0 no effect, 100 complete control)
[16] = Postemergence, 250 g ai/ha, scale 0 to 100 (0 no effect, 100 complete control), 13 to 15 days
[17] = Preemergence, 31 g ai/ha, scale 0 to 100 (0 no effect, 100 complete control)
[18] = Preemergence, 62 g ai/ha, scale 0 to 100 (0 no effect, 100 complete control)
[19] = Preemergence, 125 g ai/ha, scale 0 to 100, 0 no effect, 100 complete control
[20] = Preemergence, 250 g ai/ha, 0 to 100 scale
[21] = Postemergence, 125 g ai/ha, scale 0 to 100 (0 no effect, 100 complete control)

COc1ccc(-n2c(-c3ccccc3)ncc(C(=O)C3=C(O)CCCC3=O)c2=O)cc1OC [Compound 218]
Plant response rating, Pigweed [1, 14]: 100
Plant response rating, Pigweed [1, 15]: 100
Plant response rating, Pigweed [1, 16]: 100
Plant response rating, Pigweed [1, 17]: 100
Plant response rating, Pigweed [1, 18]: 100
Plant response rating, Pigweed [1, 19]: 100
Pigweed plant response rating [1, 20]: 100
Plant response rating, Crabgrass, Large [2, 14]: 40
Plant response rating, Crabgrass, Large [2, 15]: 45
Plant response rating, Crabgrass, Large [2, 21]: 70
Plant response rating, Crabgrass, Large [2, 16]: 90
Plant response rating, Crabgrass, Large [2, 17]: 0
Plant response rating, Crabgrass, Large [2, 18]: 20
Plant response rating, Crabgrass, Large [2, 19]: 65
Crabgrass, Large plant response rating [2, 20]: 98
Plant response rating, Wheat [3, 14]: 0
Plant response rating, Wheat [3, 15]: 0
Plant response rating, Wheat [3, 16]: 0
Plant response rating, Wheat [3, 17]: 0
Plant response rating, Wheat [3, 18]: 0
Plant response rating, Wheat [3, 19]: 0
Wheat plant response rating [3, 20]: 0
Plant response rating, Velvetleaf [4, 14]: 85
Plant response rating, Velvetleaf [4, 15]: 100
Plant response rating, Velvetleaf [4, 16]: 100
Plant response rating, Velvetleaf [4, 17]: 80
Plant response rating, Velvetleaf [4, 18]: 85
Plant response rating, Velvetleaf [4, 19]: 90
Velvetleaf plant response rating [4, 20]: 100
Plant response rating, Lambsquarters [5, 14]: 98
Plant response rating, Lambsquarters [5, 15]: 98
Plant response rating, Lambsquarters [5, 21]: 100
Plant response rating, Lambsquarters [5, 16]: 100
Plant response rating, Lambsquarters [5, 17]: 100
Plant response rating, Lambsquarters [5, 18]: 100
Plant response rating, Lambsquarters [5, 19]: 100
Lambsquarters plant response rating [5, 20]: 100
Plant response rating, Nutsedge, Yellow [6, 14]: 10
Plant response rating, Nutsedge, Yellow [6, 15]: 15
Plant response rating, Nutsedge, Yellow [6, 21]: 15
Plant response rating, Nutsedge, Yellow [6, 16]: 60
Plant response rating, Nutsedge, Yellow [6, 17]: 45
Plant response rating, Nutsedge, Yellow [6, 18]: 75
Plant response rating, Nutsedge, Yellow [6, 19]: 90
Nutsedge, Yellow plant response rating [6, 20]: 90
Plant response rating, Ragweed [7, 14]: 95
Plant response rating, Ragweed [7, 15]: 95
Plant response rating, Ragweed [7, 16]: 100
Plant response rating, Ragweed [7, 17]: 85
Plant response rating, Ragweed [7, 18]: 95
Plant response rating, Ragweed [7, 19]: 98
Ragweed plant response rating [7, 20]: 100
Plant response rating, Ryegrass, Italian [8, 14]: 30
Plant response rating, Ryegrass, Italian [8, 15]: 40
Plant response rating, Ryegrass, Italian [8, 16]: 70
Plant response rating, Ryegrass, Italian [8, 17]: 0
Plant response rating, Ryegrass, Italian [8, 18]: 0
Plant response rating, Ryegrass, Italian [8, 19]: 5
Ryegrass, Italian plant response rating [8, 20]: 5
Plant response rating, Goosegrass [9, 14]: 0
Plant response rating, Goosegrass [9, 15]: 10
Plant response rating, Goosegrass [9, 21]: 15
Plant response rating, Goosegrass [9, 16]: 35
Plant response rating, Goosegrass [9, 17]: 10
Plant response rating, Goosegrass [9, 18]: 60
Plant response rating, Goosegrass [9, 19]: 98
Goosegrass plant response rating [9, 20]: 98
Plant response rating, Cupgrass, Woolly [10, 14]: 40
Plant response rating, Cupgrass, Woolly [10, 15]: 45
Plant response rating, Cupgrass, Woolly [10, 21]: 60
Plant response rating, Cupgrass, Woolly [10, 16]: 80
Plant response rating, Cupgrass, Woolly [10, 17]: 0
Plant response rating, Cupgrass, Woolly [10, 18]: 0
Plant response rating, Cupgrass, Woolly [10, 19]: 65
Cupgrass, Woolly plant response rating [10, 20]: 85
Plant response rating, Surinam Grass [11, 14]: 75
Plant response rating, Surinam Grass [11, 15]: 80
Plant response rating, Surinam Grass [11, 16]: 90
Plant response rating, Surinam Grass [11, 17]: 10
Plant response rating, Surinam Grass [11, 18]: 65
Plant response rating, Surinam Grass [11, 19]: 98
Surinam Grass plant response rating [11, 20]: 100
Plant response rating, Foxtail, Green [12, 14]: 60
Plant response rating, Foxtail, Green [12, 15]: 85
Plant response rating, Foxtail, Green [12, 21]: 90
Plant response rating, Foxtail, Green [12, 16]: 90
Plant response rating, Foxtail, Green [12, 17]: 0
Plant response rating, Foxtail, Green [12, 18]: 30
Plant response rating, Foxtail, Green [12, 19]: 80
Foxtail, Green plant response rating [12, 20]: 100
Plant response rating, Bromegrass, Downy [13, 14]: 5
Plant response rating, Bromegrass, Downy [13, 15]: 15
Plant response rating, Bromegrass, Downy [13, 21]: 20
Plant response rating, Bromegrass, Downy [13, 16]: 30
Plant response rating, Bromegrass, Downy [13, 17]: 0
Plant response rating, Bromegrass, Downy [13, 18]: 0
Plant response rating, Bromegrass, Downy [13, 19]: 0
Bromegrass, Downy plant response rating [13, 20]: 0
